# Legend:
# [1] = PK evaluation of crystal forms in rats; format: in vivo
# Procedure: The experimental crystal forms I and II of the methanesulfonate of the compound of formula (I) were each prepared into a suspension solution with 0.5% HPMC. The compound solutions were intragastrically administered to SD rats at a dose of 60 mg/kg. Blood samples were collected at time points of 15 min, 30 min, 1 h, 2 h, 4 h, 6 h, 8 h, 24 h, 48 h, 72 h, and 96 h after administration.
# The animals were fixed, with tails warmed in a water bath 10 min before each sampling time point. About 100 µL of blood was collected via the tail vein, and the blood samples were collected in anticoagulation tubes containing EDTA-K2. The blood samples were then centrifuged at 8,000 rpm for 6 min at 4 °C to give plasma samples. The plasma samples were prepared within 30 min after blood collection. The plasma samples were stored in a refrigerator at -80 °C before the test.
# The sample to be tested was taken out from the -80 °C refrigerator, naturally thawed at room temperature, and vortexed for 5 min. 20 µL of plasma sample was precisely pipetted to a 1.5 mL centrifuge tube, and 200 µL of internal standard working solution (a solution of tolbutamide in methanol, 100 ng/mL) was added. The resulting mixture was thoroughly mixed, vortexed for 5 min, and centrifuged at 12,000 rpm for 5 min. 50 µL of supernatant was precisely pipetted to a 96-well plate pre-loaded with 150 µL of water per well, and the resulting mixture was vortexed for 5 min and then used for LC-MS/MS analysis.
# The concentrations of the test samples were calculated by Analyst 1.6.3 from AB Sciex. Parameters such as mean, standard deviation, and coefficient of variation (excluding those output directly by Analyst 1.6.3) were calculated by Microsoft Excel. PK parameters were calculated by Pharsight Phoenix 6.1 software NCA (Tmax was in median).
# [2] = Solubility in FaSSIF (pH 6.5) and FeSSIF (pH 5.0) buffer solutions; format: physicochemical
# Procedure: Test substances: the crystal forms I, II, III, and IV of the methanesulfonate of the compound of formula (I).
# • 1) 0.42 g of NaOH, 3.44 g of anhydrous NaH2PO4, and 6.19 g of NaCl were dissolved in about 0.9 L of pure water; • 2) the pH was adjusted to 6.5 using 1 N NaOH or 1 N HCl, and the buffer solution was supplemented to the volume of 1 L with pure water at room temperature; • 3) 2.24 g of FaSSIF powder was added to about 0.5 L of the buffer solution, and the mixture was stirred until the powder was completely dissolved; the resulting solution was supplemented to the volume of 1 L with the buffer solution at room temperature, and after being left to stand for 2 h, it was ready for use.
# • 1) 4.04 g of NaOH, 8.65 g of glacial acetic acid, and 11.87 g of NaCl were dissolved in about 0.9 L of pure water; • 2) the pH was adjusted to 5.0 using 1 N NaOH or 1 N HCl, and the buffer solution was supplemented to the volume of 1 L with pure water at room temperature; • 3) 11.2 g of FeSSIF powder was added to about 0.5 L of the buffer solution, and the mixture was stirred until the powder was completely dissolved; the resulting solution was supplemented to the volume of 1 L with the buffer solution at room temperature, and after being left to stand for 2 h, it was ready for use.
# An appropriate amount of each test substance was placed into separate 10 mL PE tubes, and FaSSIF (pH 6.5) buffer solution and FeSSIF (pH 5.0) buffer solution, each 10 mL, were added into the tubes, respectively. The tubes were then placed in a constant temperature water bath shaker and shaken at 37 °C for 24 h. After 24 h, samples were collected and centrifuged. The supernatants were diluted, and the solubility of the supernatants was measured.
# H1299 cell pAXL = biological target: T1, H1299 cell pAXL (Homo sapiens, UniProt P30530); assay: Inhibitory activity on cell pAXL (Western Blot, hGAS6 stimulation); format: cell-based; settings: H1299 cells, 60 min compound then hGAS6 200 ng/mL 60 min
# T1 construct: endogenous in cells; host or cells: H1299
# T1 sequence (P30530 26-894): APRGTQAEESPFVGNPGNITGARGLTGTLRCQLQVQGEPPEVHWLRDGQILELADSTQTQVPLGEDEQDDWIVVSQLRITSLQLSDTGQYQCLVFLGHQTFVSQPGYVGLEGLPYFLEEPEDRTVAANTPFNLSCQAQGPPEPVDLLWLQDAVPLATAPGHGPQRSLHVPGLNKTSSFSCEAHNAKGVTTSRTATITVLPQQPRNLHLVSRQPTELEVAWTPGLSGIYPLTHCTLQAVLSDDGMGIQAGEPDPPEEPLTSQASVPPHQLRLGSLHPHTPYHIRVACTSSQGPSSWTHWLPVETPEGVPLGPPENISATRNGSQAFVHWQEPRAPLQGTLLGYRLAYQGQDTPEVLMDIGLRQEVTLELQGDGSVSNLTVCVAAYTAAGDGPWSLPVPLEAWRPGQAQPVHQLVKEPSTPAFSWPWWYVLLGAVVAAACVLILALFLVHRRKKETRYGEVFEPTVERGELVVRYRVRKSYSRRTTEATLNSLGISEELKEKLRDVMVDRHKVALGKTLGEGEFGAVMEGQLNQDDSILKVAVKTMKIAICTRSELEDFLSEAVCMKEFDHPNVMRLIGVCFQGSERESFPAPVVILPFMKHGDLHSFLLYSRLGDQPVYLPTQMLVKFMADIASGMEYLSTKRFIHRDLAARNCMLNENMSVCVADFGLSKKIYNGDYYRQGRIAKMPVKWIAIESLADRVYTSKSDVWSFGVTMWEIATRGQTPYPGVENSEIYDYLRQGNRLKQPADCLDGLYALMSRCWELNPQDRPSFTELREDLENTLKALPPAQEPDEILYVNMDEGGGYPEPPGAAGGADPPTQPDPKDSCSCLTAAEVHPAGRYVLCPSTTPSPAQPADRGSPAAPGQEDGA
# Procedure: H1299 is a non-small cell lung cancer cell line.
# Test substance: the crystal form of the methanesulfonate of the compound of formula (I) of the present disclosure, having the structure shown above.
# Test instruments: protein electrophoresis apparatus (Bio Rad), membrane transfer apparatus (Bio Rad), exposure apparatus (Tanon), CO2 cell incubator (Thermo), and the like.
# H1299 cells were inoculated into a 6-well plate (containing 10% FBS 1640 medium, 5 × 10^5 cells/well) and adherently cultivated at 37 °C with 5% CO2 for 18 h. The cells were starved overnight, and different concentrations of the compound were added. The final compound concentrations were 0.37 nM, 1.1 nM, 3.3 nM, 10 nM, and 30 nM, with the final DMSO content in each compound well being 1 ‰. The negative control well contained medium with 1‰ DMSO. The cells were incubated at 37 °C with 5% CO2 for 60 min, and then hGAS6 (R&D, final concentration: 200 ng/mL) was added to each well. The cells were incubated for another 60 min, and then the total protein of the cells was extracted for a Western Blot experiment to assay the inhibitory activity of the compound on cell pAXL.
smiles,measurement,setting,value
"COc1cc2nccc(Oc3ccc(NC(=O)c4nn(C(C)C)cc(-c5ccc(F)cc5)c4=O)nc3)c2cc1OC [Crystal form I, N-(5-((6,7-dimethoxyquinolin-4-yl)oxy)pyridin-2-yl)-5-(4-fluorophenyl)-1-isopropyl-4-oxo-1,4-dihydropyridazine-3-carboxamide]",λ_z,"[1]; SD rats, PO 60 mg/kg, n = 3, suspension in 0.5% HPMC",0.018 h⁻¹
same,AUC(0-t),"[1]; SD, rat, plasma, po, 60 mg/kg, 0-96 h, n = 3",4020 µg·h/mL
same,Tmax,"[1]; SD, rat, plasma, po, 60 mg/kg, median, n = 3, read-out: Tmax",8 h
same,Cmax,"[1]; SD, rat, plasma, po, 60 mg/kg, n = 3, read-out: Cmax",69 µg/mL
same,tz1/2,"[1]; terminal half-life, SD rats, PO 60 mg/kg, n = 3",38.6 h
same,24-hour solubility in buffer solutions with different pH values pH6.5,"[2]; FaSSIF (pH 6.5), 37 °C, shaken 24 h",0.052 mg/mL
same,24-hour solubility in buffer solutions with different pH values pH5.0,"[2]; FeSSIF (pH 5.0), 37 °C, shaken 24 h",0.29 mg/mL
same,solubility compared with the compound of formula (I),[2]; test solutions at pH 5.0 and pH 6.5,significantly improved
same,IC50,H1299 cell pAXL,< 0.37 nM

# Reference: patent EP4582418A1, “CRYSTALLINE FORM OF QUINOLINE DERIVATIVE INHIBITOR, PREPARATION METHOD THEREFOR AND USE THEREOF” (TransThera Sciences (Nanjing), Inc., priority 2022, dated 2024)
